Laboratory results published in patent publication US9982005B2, “Macrolides and methods of their preparation and use” (President and Fellows of Harvard College, priority 2013, dated 2018).
Like-named read-outs stand apart in the source and are kept apart here.

Experiments:
Format in all cases: cell-based
EC882 E. coli imp = experiment: broth dilution MIC, E. coli EC882
Description: (§1) We have collected MIC data for a total of 50 novel macrolides that this platform has produced against over 21 unique strains of B. subtilis, E. coli, S. aureus, S. pneumoniae, and H. influenzae, including several multidrug-resistant strains, with a special focus on macrolide resistant mechanisms (vide supra). Azithromycin was included as a control macrolide. CLSI standard procedures for broth dilution MIC determination were used. […] These genotypes can be constitutive or inducible. The finding that C4-epi (unnatural) isomers of the “azaketolide” macrolide class have enhanced activities relative to C4 natural isomers is very exciting.

EC878 E. coli tolC = experiment: broth dilution MIC, E. coli EC878
Description: as §1

EC107 E. coli ATCC25922 = experiment: broth dilution MIC, E. coli EC107
Description: as §1

[1] = test system: SA101 S. aureus ATCC29213; experiment: broth dilution MIC, S. aureus SA101
Description: as §1

[2] = test system: BS1723 B. subtilis BS168 WT wild type; experiment: broth dilution MIC, B. subtilis BS1723; conditions: BS1723 B. subtilis BS168 WT wild type
Description: as §1

BS1725 B. subtilis ermC = experiment: broth dilution MIC, B. subtilis BS1725
Description: as §1

[3] = Escherichia coli, read-out: MIC
[4] = Staphylococcus aureus, ATCC29213, SA101 S. aureus ATCC29213, read-out: MIC
[5] = Bacillus subtilis, read-out: MIC
[6] = Bacillus subtilis, BS1725 B. subtilis ermC (+ery)
[7] = Bacillus subtilis, BS1725 B. subtilis ermC (−ery)

Molecule | MIC (EC882 E. coli imp; Escherichia coli) | MIC (EC878 E. coli tolC; Escherichia coli) | MIC (EC107 E. coli ATCC25922; [3]) | MIC [1, 4] | MIC [2, 5] | MIC (BS1725 B. subtilis ermC; [6]) | MIC (BS1725 B. subtilis ermC; [7]) | MIC (EC882 E. coli imp) | MIC (EC878 E. coli tolC) | MIC (EC107 E. coli ATCC25922) | MIC ([1]; SA101 S. aureus ATCC29213) | MIC [2] | MIC (BS1725 B. subtilis ermC; BS1725 B. subtilis ermC (+ery)) | MIC (BS1725 B. subtilis ermC; BS1725 B. subtilis ermC (−ery))
CC[C@H]1OC(=O)[C@H](C)C(=O)C[C@@H](O[C@@H]2OC(C)CC(N(C)C)C2O)[C@@](C)(OC)C[C@@H](C)CN[C@H](C)[C@H]2N(CCCCn3cc(-c4nccs4)nn3)C(=O)O[C@]12C (stereo partly drawn) [FSM-30501] | > 32 µg/mL | > 32 µg/mL | > 32 µg/mL | > 32 µg/mL | > 32 µg/mL | > 32 µg/mL | > 32 µg/mL | – | – | – | – | – | – | –
CC[C@H]1OC(=O)[C@H](C)C(=O)C[C@@H](O[C@@H]2OC(C)CC(N(C)C)C2O)[C@@](C)(OC)C[C@@H](C)CN(C(C)=O)[C@H](C)[C@H]2N(CCCCn3cc(-c4nccs4)nn3)C(=O)O[C@]12C (stereo partly drawn) [FSM-30503] | > 32 µg/mL | > 32 µg/mL | > 32 µg/mL | > 32 µg/mL | > 32 µg/mL | > 32 µg/mL | > 32 µg/mL | – | – | – | – | – | – | –
CC[C@H]1OC(=O)[C@H](C)C(=O)C[C@@H](O[C@@H]2OC(C)CC(N(C)C)C2O)[C@@](C)(OC)C[C@@H](C)CN[C@H](C)[C@H]2N(CCCCn3cc(-c4cccnn4)nn3)C(=O)O[C@]12C (stereo partly drawn) [FSM-30506] | > 32 µg/mL | > 32 µg/mL | > 32 µg/mL | > 32 µg/mL | > 32 µg/mL | > 32 µg/mL | > 32 µg/mL | – | – | – | – | – | – | –
CC[C@H]1OC(=O)[C@H](C)C(=O)C[C@@H](O[C@@H]2OC(C)CC(N(C)C)C2O)[C@@](C)(OC)C[C@@H](C)CN(C(C)=O)[C@H](C)[C@H]2N(CCCCn3cc(-c4cccc(N)c4)nn3)C(=O)O[C@]12C (stereo partly drawn) [FSM-30512] | > 32 µg/mL | > 32 µg/mL | > 32 µg/mL | > 32 µg/mL | > 32 µg/mL | > 32 µg/mL | > 32 µg/mL | – | – | – | – | – | – | –
CC[C@H]1OC(=O)[C@H](C)C(=O)C[C@@H](O[C@@H]2OC(C)CC(N(C)C)C2O)[C@@](C)(OC)C[C@@H](C)CN(C(C)=O)[C@H](C)[C@H]2N(CCCCn3cc(-c4cccnn4)nn3)C(=O)O[C@]12C (stereo partly drawn) [FSM-30513] | > 32 µg/mL | > 32 µg/mL | > 32 µg/mL | > 32 µg/mL | > 32 µg/mL | > 32 µg/mL | > 32 µg/mL | – | – | – | – | – | – | –
CC[C@H]1OC(=O)[C@H](C)C(=O)C[C@@H](O[C@@H]2OC(C)CC(N(C)C)C2O)[C@@](C)(OC)C[C@@H](C)CN(C(C)=O)[C@H](C)[C@H]2N(CCCCn3cc(-c4nc5ccccc5s4)nn3)C(=O)O[C@]12C (stereo partly drawn) [FSM-30514] | > 32 µg/mL | > 32 µg/mL | > 32 µg/mL | > 32 µg/mL | > 32 µg/mL | > 32 µg/mL | > 32 µg/mL | – | – | – | – | – | – | –
CC[C@H]1OC(=O)[C@H](C)C(=O)C[C@@H](O[C@@H]2OC(C)CC(N(C)C)C2O)[C@@](C)(OC)C[C@@H](C)CN(C(C)=O)[C@H](C)[C@H]2N(CCCCn3cc(-c4ccccn4)nn3)C(=O)O[C@]12C (stereo partly drawn) [FSM-30515] | > 32 µg/mL | > 32 µg/mL | > 32 µg/mL | > 32 µg/mL | > 32 µg/mL | > 32 µg/mL | > 32 µg/mL | – | – | – | – | – | – | –
CC[C@H]1OC(=O)[C@H](C)C(=O)C[C@@H](O[C@@H]2OC(C)CC(N(C)C)C2O)[C@@](C)(OC)C[C@@H](C)CN[C@H](C)[C@H]2N(CCCCn3cc(-c4ccccn4)nn3)C(=O)O[C@]12C (stereo partly drawn) [FSM-30517] | > 32 µg/mL | > 32 µg/mL | > 32 µg/mL | > 32 µg/mL | > 32 µg/mL | > 32 µg/mL | > 32 µg/mL | – | – | – | – | – | – | –
spiramycin [reference compound] | – | – | – | – | – | – | – | 1 µg/mL | 16 µg/mL | >32 µg/mL | 8 µg/mL | 2 µg/mL | 16 µg/mL | 2 µg/mL
